# Laboratory results taken from publication PMC7167990, “Therapeutic Effects of Atranorin towards the Proliferation of Babesia and Theileria Parasites” (Pathogens, 2020).
# Tests used:
# [1] = system: B. microti; conditions: B. microti in vivo; cited from earlier work
# [2] = system: MDBK cells; experiment: Cytotoxicity assay (CCK-8 cell viability); assay type: cell-based, bovine
# Procedure: (§1) Cultures of human foreskin fibroblast (HFF; HFF-1 ATCC® SCRC-1041™), Madin–Darby bovine kidney (MDBK; ECACC) and mouse embryonic fibroblast (NIH/3T3; ATCC® CRL-1658™) cells were retrieved from −80 °C stock and cultured continuously at 37 °C under atmosphere 5% CO2 in our laboratory. The NIH/3T3 and HFFs cells were maintained in Dulbecco Modified Eagle’s Medium (DMEM; Gibco, Grand Island, NY, USA), while MDBK cell line grown in Minimum Essential Medium Eagle (MEM; Gibco). Each medium was treated with 0.5% penicillin/streptomycin (Gibco), 10% inactivated fetal bovine serum and 2 mM glutamine. Every 72 to 96 h, the medium was replaced, and once 80% confluence was reached, the cell collection was performed by sub-culture protocol. To confirm the absence of mycoplasma contamination, 4,6-diamidino-2-phenylindole dihydrochloride stain (Sigma-Aldrich) was used.
# (§2) The cell viability test was conducted in a 96-well plate as described elsewhere. Briefly, an aliquot of (100 µL) cells was implanted at a concentration of 5 × 10^4 cells/mL in DMEM or MEM with fetal bovine serum and incubated overnight under atmosphere 5% CO2 at 37 °C for attachment. Using two-fold dilutions, aliquots (10 µL) of drugs were added in triplicate per well to attain final concentrations of 50 to 1000 µM and further incubated for 24 h. The positive control wells containing cells mixed with the medium in 0.4% DMSO, whereas the negative control wells containing culture medium only. After a 24-h incubation, Cell Counting Kits-8 (CCK-8, 10 µL) was added to each well and then plate incubation was conducted for an additional 3 h and a microplate reader was used to assess the absorbance at 450 nm.
# [3] = system: HFFs; experiment: Cytotoxicity assay (CCK-8 cell viability); assay type: cell-based, human
# Procedure: as §1, §2
# [4] = system: NIH/3T3 cells; experiment: Cytotoxicity assay (CCK-8 cell viability); assay type: cell-based, mouse
# Procedure: as §1, §2
# [5] = system: T. equi; experiment: In vitro growth inhibition, Babesia fluorescent (SYBR Green I) assay; assay type: cell-based; conditions: 96 h, 4 days culture, mean of triplicate experiments
# Procedure: (§3) Babesia parasite was incubated and maintained at 37 °C in a humidifying chamber under 5% CO2, 5% O2, and 90% N2 atmosphere using a microaerophilic stationary-phase culture for conducting the in vitro experiment. Briefly, Germany strain Babesia divergens was cultured in cattle RBCs in Roswell Park Memorial Institute 1640 (RPMI 1640; Sigma-Aldrich, St. Louis, MO, USA) medium replenished with 40% cattle serum, while culture medium 199 (M199; Sigma-Aldrich) was utilized for the Argentina strain B. bigemina and Texas strain B. bovis, and T. equi USDA strain cultured in cattle RBCs supplemented with 40% cattle serum and horse RBCs maintained in hypoxanthine (MP Biomedicals, Santa Ana, CA, USA; final concentration 13.6 μg/mL) and 40% horse serum, respectively. GIT medium complemented with 40% horse serum was used as a growth medium for the USDA strain of B. caballi cultured in horse RBCs. To ensure free-bacterial contamination, amphotericin B (0.15 μg/mL) (Sigma-Aldrich), streptomycin (60 U/mL) and penicillin G (60 U/mL) were added to all medium.
# (§4) The Babesia fluorescent assay was carried out on the in vitro culture as previously reported elsewhere to assess the growth of the inhibitory effectiveness of ATR and the combination treatment with DA, CF, and AV. Briefly, in three separate trials, using two-fold dilution, different concentrations of ATR, DA, CF, and AV were prepared in the culture medium and added in 96-well plates in triplicate with 1% parasitemia for T. equi, B. divergens and B. caballi at 5% HCT, while for B. bigemina and B. bovis using 2.5% HCT. The drug combined efficacy was conducted at the same time with the single-treatment assay in accordance with the Chou–Talalay method. […] On day four of culture, an aliquot (100 µL) of lysis buffer mixed with 0.2μL/mL SG1 was added per well; subsequently, it was covered with aluminum foil to prevent exposure to light. After incubation for 6-h at 37 °C, fluorescence readings were acquired on a spectrofluorimeter (Fluoroskan Ascent, Thermo Fisher Scientific, Oceanside, CA, USA) with a 485 nm excitation wavelength and a 518 nm emission wavelength.
# (§5) The IC50 values of ATR, DA, CF, and AV were established from the in vitro growth inhibition by nonlinear regression curve fit on a GraphPad Prism (GraphPad Software Inc., San Diego, CA, USA). […] The significant variations (p < 0.05) among group mean values on parasitemia and one-way ANOVA Tukey’s test in GraphPad Prism version 5.0 was used to analyze hematology profiles in mice infected with B. microti.
# [6] = system: B. bigemina; experiment: as above; assay type: cell-based; conditions: 96 h, 4 days culture, mean of triplicate experiments
# Procedure: as §3, §4, §5
# [7] = system: B. bovis; experiment: as above; assay type: cell-based; conditions: Bos taurus, 96 h, 4 days culture, mean of triplicate experiments
# Procedure: as §3, §4, §5
# [8] = system: B. divergens; experiment: as above; assay type: cell-based; conditions: 96 h, 4 days culture, mean of triplicate experiments
# Procedure: as §3, §4, §5
smiles,measurement,setting,value
CO[C@H]1/C=C\C=C(/C)C(=O)NC2=CC(=O)C(NCCN(C)C)=C(C[C@@H](C)C[C@H](OC)[C@H](O)[C@@H](C)/C=C(\C)[C@@H]1OC(N)=O)C2=O [17-DMAG],chemotherapeutic effect,[1],89%
"CC(C)/N=c1\cc2n(-c3ccc(Cl)cc3)c3ccccc3nc-2cc1Nc1ccc(Cl)cc1 [CF, clofazimine]",EC50,"[2]; Bos taurus, MDBK cells, 24 h, CCK-8",34.7 ± 3.4 µM
same,Selective Index MDBK,[2]; EC50 MDBK / IC50 B. bigemina,6.1
same,Selective Index MDBK,[2]; EC50 MDBK / IC50 B. bovis,4.2
same,Selective Index MDBK,[2]; EC50 MDBK / IC50 B. caballi,4.4
same,Selective Index MDBK,[2]; EC50 MDBK / IC50 B. divergens,2.5
same,Selective Index MDBK,[2]; EC50 MDBK / IC50 T. equi,12.1
same,Selective Index HFFs,[3]; EC50 HFFs / IC50 B. bigemina,˃17.5
same,Selective Index HFFs,[3]; EC50 HFFs / IC50 B. bovis,˃12.1
same,Selective Index HFFs,[3]; EC50 HFFs / IC50 B. caballi,˃12.6
same,Selective Index HFFs,[3]; EC50 HFFs / IC50 B. divergens,˃7.2
same,Selective Index HFFs,[3]; EC50 HFFs / IC50 T. equi,˃34.7
same,EC50,"[3]; Homo sapiens, HFFs, 24 h, CCK-8",> 100 µM
same,Selective Index NIH/3T3,[4]; EC50 NIH/3T3 / IC50 B. bigemina,˃17.5
same,Selective Index NIH/3T3,[4]; EC50 NIH/3T3 / IC50 B. bovis,˃12.1
same,Selective Index NIH/3T3,[4]; EC50 NIH/3T3 / IC50 B. caballi,˃12.6
same,Selective Index NIH/3T3,[4]; EC50 NIH/3T3 / IC50 B. divergens,˃7.2
same,Selective Index NIH/3T3,[4]; EC50 NIH/3T3 / IC50 T. equi,˃34.7
same,EC50,"[4]; Mus musculus, NIH3T3, NIH/3T3 cells, 24 h, CCK-8, read-out: EC50 NIH/3T3",> 100 µM
same,IC50,[5],2.88 ± 0.9 µM
same,IC50,[6],5.73 ± 1.9 µM
same,IC50,[7],8.24 ± 1.7 µM
same,IC50,[8],13.8 ± 4.3 µM
C=CCS[S+]([O-])CC=C (stereo not drawn) [allicin],chemotherapeutic effect,[1],58.3%
O=c1oc2c(O)c(O)cc3c(=O)oc4c(O)c(O)cc1c4c23 [ellagic acid],chemotherapeutic effect,[1],49%
CCn1cc(C(=O)O)c(=O)c2cc(F)c(N3CCNCC3)nc21 [enoxacin],chemotherapeutic effect,[1],34%
COc1cc2c[n+](C)c3c4cc5c(cc4ccc3c2cc1OC)OCO5 [nitidine chloride],chemotherapeutic effect,[1],91%
CCn1cc(C(=O)O)c(=O)c2cc(F)c(N3CCNCC3)cc21 [norfloxacin],chemotherapeutic effect,[1],31%
CC1COc2c(N3CCN(C)CC3)c(F)cc3c(=O)c(C(=O)O)cn1c23 (stereo not drawn) [ofloxacin],chemotherapeutic effect,[1],49%
CC1=CC(=O)C(C(C)C)=CC1=O [thymoquinone],chemotherapeutic effect,[1],37%
